Each structure is given as a SMILES string.

A word on the EC50: it is the concentration needed to bring the measured effect to its halfway point. The low end stands for a more potent agent, the high end for a less potent agent. By half-life is commonly meant the time in which the quantity being followed falls by half. High values mean slow decline, low ones rapid decline. One may read the Ki as a measure of affinity in units of concentration, obtained from inhibition or displacement. As a reminder, the IC50 is the concentration needed to halve the response being measured. A word on the Kd: it is the equilibrium constant for the complex coming apart.

The target of data set [1] is Structural capsid protein (Human immunodeficiency virus 1, UniProt Q76129). Kind of data set: Inhibition of HIV-1 NL4-3 monomeric capsid protein.
Data set [2] can be described thus: Half life in human. The data set is classed as ADME.
Data set [3] concerns the target GABA-A receptor; anion channel. The data set can be described thus: Binding affinity to GABAA receptor (unknown origin) assessed as inhibition constant. Format: protein-complex assay, Homo sapiens.
For data set [4], the target named is T1, Receptor-type tyrosine-protein kinase FLT3 (Homo sapiens, UniProt P36888).
T1 sequence (P36888 whole entry): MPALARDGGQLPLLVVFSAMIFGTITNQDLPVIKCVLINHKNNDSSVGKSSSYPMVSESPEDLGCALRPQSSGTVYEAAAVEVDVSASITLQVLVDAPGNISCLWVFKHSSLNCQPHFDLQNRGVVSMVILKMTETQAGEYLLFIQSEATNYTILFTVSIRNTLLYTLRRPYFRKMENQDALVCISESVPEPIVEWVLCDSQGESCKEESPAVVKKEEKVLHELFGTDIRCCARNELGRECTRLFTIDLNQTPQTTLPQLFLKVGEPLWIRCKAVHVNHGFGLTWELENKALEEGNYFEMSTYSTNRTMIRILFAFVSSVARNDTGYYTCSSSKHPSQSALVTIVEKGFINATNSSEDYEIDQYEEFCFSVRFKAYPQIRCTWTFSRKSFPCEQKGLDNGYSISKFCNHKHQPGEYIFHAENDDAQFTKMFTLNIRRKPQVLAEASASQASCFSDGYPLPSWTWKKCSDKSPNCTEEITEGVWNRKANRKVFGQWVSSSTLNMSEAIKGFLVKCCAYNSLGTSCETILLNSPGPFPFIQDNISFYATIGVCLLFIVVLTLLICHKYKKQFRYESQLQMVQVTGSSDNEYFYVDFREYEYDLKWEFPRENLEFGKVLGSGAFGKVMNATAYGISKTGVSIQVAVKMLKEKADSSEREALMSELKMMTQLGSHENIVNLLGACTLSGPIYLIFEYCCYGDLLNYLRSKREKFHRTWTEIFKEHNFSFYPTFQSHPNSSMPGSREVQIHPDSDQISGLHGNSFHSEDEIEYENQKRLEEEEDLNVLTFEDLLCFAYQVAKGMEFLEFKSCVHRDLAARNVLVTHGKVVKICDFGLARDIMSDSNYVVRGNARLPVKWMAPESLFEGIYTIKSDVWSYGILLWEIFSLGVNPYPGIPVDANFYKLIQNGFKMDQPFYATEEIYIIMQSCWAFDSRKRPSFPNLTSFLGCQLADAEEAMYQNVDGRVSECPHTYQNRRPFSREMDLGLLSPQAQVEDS
Kind of data set: Inhibition of human FLT3 (unknown origin) using poly(Glu,Tyr) as substrate incubated for 2 hrs in presence of ATP by luminescence method.

The target in data set [5] is Tyrosine-protein kinase JAK2 (Homo sapiens, UniProt O60674). Kind of data set: Inhibition of N-terminal human recombinant JAK2 using poly(Glu,Ala,Tyr) as substrate incubated for 2 hrs in presence of ATP by luminescence method.
For data set [6], the target named is Lanosterol 14-alpha demethylase (Candida albicans (strain SC5314 / ATCC MYA-2876) (Yeast), UniProt P10613). The data set can be described thus: Binding affinity to Candida albicans SC5314 CYP51 assessed as dissociation constant.
A short description of data set [7]: Activation of Myosin ATPase activity in bovine Cardio-myofibril. Also noted: species or system Bos taurus.
In data set [8] the target is Prostaglandin E2 receptor EP2 subtype (Homo sapiens, UniProt P43116). The data set can be described thus: Agonist activity at human EP2 receptor expressed in HEK293 cells. The data set is classed as functional, cell-based.
Chain of Prostaglandin E2 receptor EP2 subtype (P43116 whole entry): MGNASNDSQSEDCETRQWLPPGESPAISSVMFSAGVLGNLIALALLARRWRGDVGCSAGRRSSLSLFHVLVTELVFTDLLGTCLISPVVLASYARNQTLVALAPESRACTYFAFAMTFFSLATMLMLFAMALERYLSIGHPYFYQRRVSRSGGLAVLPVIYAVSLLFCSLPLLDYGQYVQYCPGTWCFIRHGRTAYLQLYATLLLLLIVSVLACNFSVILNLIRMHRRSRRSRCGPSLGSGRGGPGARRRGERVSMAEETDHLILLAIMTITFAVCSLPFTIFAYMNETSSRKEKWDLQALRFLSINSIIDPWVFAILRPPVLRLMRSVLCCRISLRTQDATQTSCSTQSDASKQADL

Chain of Structural capsid protein (Q76129 whole entry): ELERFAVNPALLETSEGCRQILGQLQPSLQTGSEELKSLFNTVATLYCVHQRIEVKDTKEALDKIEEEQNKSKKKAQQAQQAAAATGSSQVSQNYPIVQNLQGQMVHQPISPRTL
Chain of Tyrosine-protein kinase JAK2 (O60674 whole entry): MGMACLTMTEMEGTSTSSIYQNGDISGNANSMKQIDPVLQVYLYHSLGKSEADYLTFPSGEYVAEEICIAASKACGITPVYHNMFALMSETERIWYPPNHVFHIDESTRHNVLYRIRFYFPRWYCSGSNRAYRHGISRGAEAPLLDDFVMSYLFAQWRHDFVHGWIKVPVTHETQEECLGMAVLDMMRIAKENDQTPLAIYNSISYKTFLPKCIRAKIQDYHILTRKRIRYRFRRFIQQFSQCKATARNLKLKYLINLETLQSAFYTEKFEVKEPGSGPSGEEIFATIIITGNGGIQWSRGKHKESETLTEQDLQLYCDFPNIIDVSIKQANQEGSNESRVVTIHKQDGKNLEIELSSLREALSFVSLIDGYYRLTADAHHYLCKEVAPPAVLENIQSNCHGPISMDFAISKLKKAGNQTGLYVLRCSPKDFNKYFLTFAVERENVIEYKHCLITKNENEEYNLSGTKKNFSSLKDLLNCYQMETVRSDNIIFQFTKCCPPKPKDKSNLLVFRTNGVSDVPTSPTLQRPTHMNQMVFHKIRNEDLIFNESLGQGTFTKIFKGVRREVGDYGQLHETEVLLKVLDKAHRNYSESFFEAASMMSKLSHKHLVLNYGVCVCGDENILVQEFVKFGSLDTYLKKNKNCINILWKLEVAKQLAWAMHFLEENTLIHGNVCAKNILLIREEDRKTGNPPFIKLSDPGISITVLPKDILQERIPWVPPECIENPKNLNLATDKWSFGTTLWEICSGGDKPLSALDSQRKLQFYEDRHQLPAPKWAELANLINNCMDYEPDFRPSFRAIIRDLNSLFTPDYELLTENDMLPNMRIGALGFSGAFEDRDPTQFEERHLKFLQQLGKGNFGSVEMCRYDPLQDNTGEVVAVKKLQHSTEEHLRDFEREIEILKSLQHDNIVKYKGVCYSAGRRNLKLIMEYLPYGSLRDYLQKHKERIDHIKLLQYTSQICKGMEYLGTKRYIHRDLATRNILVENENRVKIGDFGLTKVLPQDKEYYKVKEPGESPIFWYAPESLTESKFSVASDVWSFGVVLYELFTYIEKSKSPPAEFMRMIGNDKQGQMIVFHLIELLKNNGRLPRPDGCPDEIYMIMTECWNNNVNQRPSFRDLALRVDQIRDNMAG
Chain of Lanosterol 14-alpha demethylase (P10613 whole entry): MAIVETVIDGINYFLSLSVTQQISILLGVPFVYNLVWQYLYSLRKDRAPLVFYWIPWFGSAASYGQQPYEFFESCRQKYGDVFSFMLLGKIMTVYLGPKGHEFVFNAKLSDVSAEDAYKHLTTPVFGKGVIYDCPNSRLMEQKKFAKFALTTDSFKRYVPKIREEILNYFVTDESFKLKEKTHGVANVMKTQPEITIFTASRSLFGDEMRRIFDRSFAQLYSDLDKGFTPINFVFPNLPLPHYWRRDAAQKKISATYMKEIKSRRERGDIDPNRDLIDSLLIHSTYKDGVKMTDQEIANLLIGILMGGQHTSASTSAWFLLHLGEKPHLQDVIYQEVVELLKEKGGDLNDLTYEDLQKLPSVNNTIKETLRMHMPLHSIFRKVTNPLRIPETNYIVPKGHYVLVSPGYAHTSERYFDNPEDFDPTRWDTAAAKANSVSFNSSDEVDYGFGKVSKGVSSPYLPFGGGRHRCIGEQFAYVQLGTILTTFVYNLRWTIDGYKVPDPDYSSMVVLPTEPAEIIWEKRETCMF

`Cn1nc(NS(C)(=O)=O)c2cccc(-c3cccnc3[C@H](Cc3cc(F)cc(F)c3)NC(=O)Cn3nc(C(F)(F)F)c4c3C(F)(F)[C@@H]3C[C@H]43)c21`: a half-maximal response in data set [1] (EC50) required 12 nM. `Cc1[nH]c2ccccc2c1CC(=O)N[C@@H](Cc1ccccc1)C(=O)N(C)c1ccccc1` came in with a half-life in data set [2] of 3 min. In data set [1], `NC(=O)c1cccc(-c2cccnc2[C@H](Cc2cc(F)cc(F)c2)NC(=O)Cn2nc(C(F)(F)F)c3c2C(F)(F)[C@@H]2C[C@H]32)c1` gave a half-maximal effective concentration (EC50) of 167 nM. In data set [1], `CC(C)(C#Cc1ccc(-c2ccc(Cl)c3c(NS(C)(=O)=O)nn(CC(F)(F)F)c23)c([C@H](Cc2cc(F)cc(F)c2)NC(=O)Cn2nc(C(F)(F)F)c3c2C(F)(F)[C@@H]2C[C@H]32)n1)S(C)(=O)=O` came in with an EC50 of 0.05 nM.

As to `CC(=O)[C@H]1CC[C@H]2[C@@H]3CC[C@H]4C[C@](C)(O)CC[C@]4(C)[C@H]3CC[C@]12C` [GANAXOLONE], the Ki in data set [3] is 790 nM. For `COc1cc(-c2ccnc(Nc3cccc(N(C)C)c3)n2)ccc1O`, the values for the IC50 in data set [4] and in data set [5] were 22 nM and 23 nM, respectively. In data set [1], `COc1ccc(N(C)C(=O)[C@H](Cc2ccccc2)NC(=O)Cc2c[nH]c3ccc(O)cc23)cc1` returned an EC50 of 52 nM. For the compound `O[C@@](Cn1cnnn1)(c1ccc(F)cc1F)C(F)(F)c1ccc(-c2ccc(OCC(F)(F)F)cc2)cn1` [OTESECONAZOLE], the Kd in data set [6] was ≤ 39 nM.

For the compound `NC(=O)c1cccc(-c2cccnc2[C@H](Cc2cc(F)cc(F)c2)NC(=O)Cc2c[nH]c3ccc(O)cc23)c1`, the EC50 in data set [1] came out at 150 nM. As for `Cn1nc(N)c2cccc(-c3cccnc3[C@H](Cc3cc(F)cc(F)c3)NC(=O)Cn3nc(C(F)(F)F)c4c3C(F)(F)[C@@H]3C[C@H]43)c21`, the half-maximal effective concentration (EC50) in data set [1] came to 19 nM.

Compound `CC(C)n1c(=O)cc(N[C@@H](C)c2ccccc2)[nH]c1=O` registered an EC50 in data set [7] of 711 nM. The compound `Cn1nc(NS(C)(=O)=O)c2c(Cl)ccc(-c3ccc(C#CC(C)(C)S(C)(=O)=O)nc3[C@H](Cc3cc(F)cc(F)c3)NC(=O)Cn3nc(C(F)(F)F)c4c3C(F)(F)[C@@H]3C[C@H]43)c21` gave an EC50 in data set [1] of 0.2 nM. In data set [8], `CC(C)OC(=O)CNc1cccc(CN(Cc2ccc(-n3cccn3)cc2)S(=O)(=O)c2cccnc2)n1` [OMIDENEPAG ISOPROPYL] came in with a concentration giving a half-maximal response (EC50) of 1.1 nM.
